Laboratory results from EPA's ToxValDB 9.5 (doi:10.2903/j.efsa.2016.4491).

Columns and labels:
Poecilus cupreus = test: LR50; higher = less toxic; conditions: not reported; mortality
Canidae = conditions: chronic, oral, Dog Other, clinical signs
Bibionidae = conditions: chronic/long-term; duration: 28 days
Daphnia magna = conditions: chronic/long-term; duration: 21 days; reproduction

SMILES: CC[C@H](C)[C@H]1O[C@]2(C=C[C@@H]1C)C[C@@H]1C[C@@H](C/C=C(\C)[C@@H](O[C@H]3C[C@H](OC)[C@@H](O[C@H]4C[C@H](OC)[C@@H](O)[C@H](C)O4)[C@H](C)O3)[C@@H](C)/C=C/C=C3\CO[C@@H]4[C@H](O)C(C)=C[C@@H](C(=O)O1)[C@]34O)O2.CO[C@H]1C[C@H](O[C@H]2[C@H](C)O[C@@H](O[C@@H]3/C(C)=C/C[C@@H]4C[C@@H](C[C@]5(C=C[C@H](C)[C@@H](C(C)C)O5)O4)OC(=O)[C@@H]4C=C(C)[C@@H](O)[C@H]5OC/C(=C\C=C\[C@@H]3C)[C@]54O)C[C@@H]2OC)O[C@@H](C)[C@@H]1O [Abamectin]
- LR50 (Poecilus cupreus): > 58 g/ha
- NOAEL (Canidae; duration: 18 weeks): 0.25 mg/kg-day
- NOAEL (Canidae; duration: 53 weeks): 0.25 mg/kg-day
- LD50 (Anas platyrhynchos; acute, oral, unspecified, mortality): ≤ 77 mg/kg-day
- NOEC (Anas platyrhynchos; chronic/long-term, M): 1.33 mg/kg-day
- LC50 (Anas platyrhynchos; short-term, oral, feed, mortality): 48.6 mg/kg-day
- LC50 (Tagia sp.; acute, duration: 14 days, mortality): 33 mg/kg
- NOEC (Tagia sp.; not reported): ≥ 0.72 mg/kg
- NOEC (Bibionidae): 8.1e-05 mg/L
- LD50 (Oncorhynchus mykiss; acute, duration: 96 hours, mortality): 0.0036 mg/L
- NOEC (Oncorhynchus mykiss; chronic/long-term, duration: 28 days): 0.00052 mg/L
- NOEC (Daphnia magna): 1e-05 mg/L
- NOAEL (Rattus norvegicus; acute, clinical signs): 0.5 mg/kg-day
- LD50 (Rattus norvegicus; acute, mortality): 8.7 mg/kg
- NOEC (Rattus norvegicus; chronic, oral): 0.12 mg/kg-day
